Measured values published in patent US7641927B2, “Chewing gum and confectionery compositions containing a stain removing complex, and methods of making and using the same” (Cadbury Adams USA, LLC, priority 2006, dated 2010).

Assay: Stain removal study on stained hydroxyapatite (HAP) disks, CIELAB ΔE
Details: test solution in artificial human saliva, one hour treatment, 15 ml/min, 37° C.; FIG. 2
Experimental: A flow system was assembled for staining samples of hydroxyapatite (HAP) disks using a staining solution. The staining solution was prepared from a mixture containing tea, coffee and porcine gastric mucin. The staining solution was circulated through the flow system at a rate of about 15 ml/min, and passed continuously over the HAP disks for about 96 hours at about 37° C. After 96 hours, the stained HAP disks were then placed in artificial human saliva (as prepared in Example 5) at a pH of about 7, and were then rinsed and allowed to dry. The HAP disks were segregated into 6 sample groups. Each of the HAP disks were measured to yield a baseline L*a*b stain score in accordance with the Commission International de L'Eclairage Laboratory (CIELAB) color scale. The CIELAB scale quantifies color according to 3 parameters, L* (lightness-darkness scale), a* (red-green chroma), and b* (yellow-blue chroma). In order to obtain reproducible readings, the stained HAP disks were allowed to air-dry at room temperature for about 2 hours before measurement is to be made. The baseline stain measurements were taken by making diffuse reflectance absorbance readings with a Minolta spectrophotometer. The absorbance readings over the entire visible color spectrum were obtained for each HAP disk. […] The overall change in stain level ΔE was determined for each of the treated HAP disks.

## CCCCCCCCCCCCCCCCCC(=O)[O-].[Na+] [sodium stearate]
  stain removing activity (ΔE): least stain removing activity

## OC[C@H]1O[C@@H]2O[C@H]3[C@H](O)[C@@H](O)[C@@H](O[C@H]4[C@H](O)[C@@H](O)[C@@H](O[C@H]5[C@H](O)[C@@H](O)[C@@H](O[C@H]6[C@H](O)[C@@H](O)[C@@H](O[C@H]7[C@H](O)[C@@H](O)[C@@H](O[C@H]8[C@H](O)[C@@H](O)[C@@H](O[C@H]1[C@H](O)[C@H]2O)O[C@@H]8CO)O[C@@H]7CO)O[C@@H]6CO)O[C@@H]5CO)O[C@@H]4CO)O[C@@H]3CO [β-cyclodextrin]
  stain removing activity (ΔE): least stain removing activity
